According to patent publication US12478677B2, “Tunable luminescent organic salts for enhanced imaging and photodynamic therapy” (BOARD OF TRUSTEES OF MICHIGAN STATE UNIVERSITY, priority 2017, dated 2025):
Entries after “also recorded” stand apart in the source; their conditions may differ. Like-named read-outs stand apart in the source and are kept apart here.

Assays:
A549 cells = assay: Viability studies (trypan blue staining and cell counting) with or without IR excitation; format: cell-based, human; details: for Concentration at which cytotoxic: cells, toxic at low concentration, even without IR light; for IC50: linear regression analysis; for Phototoxicity with IR excitation, in words: IR (850 nm) excitation; for Toxicity in words, dark and light: with or without IR (850 nm) excitation; for Toxicity in the dark, in words: without IR excitation
Protocol: The cell lines human lung carcinoma (A549), metastatic human melanoma (WM1158) and Vemurafenib-resistant melanoma (Sk-Mel-28-Vem^R) are used. Sk-Mel-28-Vem^R is generated by culturing a parental melanoma cell lines in the presence of 2 μM Vemurafenib for 2 months. Acquired Vemurafenib resistance is defined by >1 log change in IC50 between nonresistant and resistant cell lines. Resistance is maintained through media supplementation with 2 μM Vemurafenib, which is changed every 48 hours. All cells are cultured in DMEM without pyruvate with 10% heat inactivated fetal bovine serum supplemented with glutamine and penicillin/streptomycin, and incubated in 37° C. with 5% CO2.
A549 and WM1158 cells are seeded at a density of 50,000 cells per well in 6-well tissue culture plates. After 24 hours of incubation, media is aspirated and replaced with media containing luminescent dyes at indicated concentrations. Each well is irradiated with an 850 nm LED lamp with an illumination rate of 526 mW/cm^2 for an hour in the incubator, and control cells are left in a dark incubator without irradiation. For studies with Cy7, a 740 nm LED lamp is used instead of an 850 nm, but with a similar illumination flux. Immediately after irradiation, the media is replenished with fresh dye-laced media and allowed to incubate for another 24 hours. […] Viable cell number is determined at 24 and 96 hours using trypan blue staining and a Nexcelom Cellometer Auto T4 cell counter. All assays are done with 3 biological replicates. The fold change in cell proliferation over days of treatment was calculated using the following equation.

[1] = Absorption and emission spectra; format: physicochemical
Protocol: FIGS. 8A-8F. Non-toxic cation-anion pair enhances live cell IR fluorescence imaging. FIG. 8A is a graph showing tunable organic salts absorb and emit in the IR (700-1200 nm) and eliminate background noise from absorbance/emission tissue components such as melanin, water, oxyhemoglobin (Hb-O2) and hemoglobin (Hb). […] A549 cells were incubated with vehicle, 1 μM CyPF6, or 1 μM CyTPFB with or without IR (850 nm) excitation. Cell viability determined by trypan blue staining and cell counting. (D) CyTPFB staining in A549 cells. (E) DNA staining using 4',6-diamidino-2-phenylindole (DAPI). (F) Superimposed CyTPFB+DAPI staining. Effective fluorescence dyes must be non-toxic for live cell imaging. […] Further developed are luminescent dyes that absorb and emit in the optical tissue window for imaging without background absorption/emission from components of tissue such as water, hemoglobin, and melanin, as shown in FIG. 8A. Heptamethine cyanine (Cy^+) is a photoactive cation that absorbs and emits in IR wavelengths, with an excitation/emission maximum of 830/848 nm, as shown in FIG. 8B. The deeper excitation and emission of Cy^+ provide an advantage over Cy7 (excitation/emission maximum of 750/773 nm), allowing imaging at greater tissue depths. […] Imaging live cells with these toxic cation-anion pairs requires usage of low doses that result in low absorbance and emission, resulting in poor quality images. […] CyTPFB is non-toxic to cells even at greater than 20-fold higher concentrations of 20 μM. The non-toxic nature of CyTPBF allows use of high doses in eukaryotic and prokaryotic cells for enhanced IR imaging with greater brightness, as shown in FIGS. 8D-8F for a eukaryotic cell example.

[2] = Salt integrity and aggregation in cell media (mass spectrometry, electron microscopy, UV-Vis); format: physicochemical; details: for Integrity of salt pairing in cellular environments: high resolution mass spectrometry, electron microscopy, UV-Vis spectroscopy
Source text: FIGS. 7A-7C. […] Organic salts were first dissolved in DMSO and then diluted in water, forming nanoparticles. […] Combinations of H- and J-aggregation of organic salts can be seen by blue-shifted peaks (lower wavelength) and red-shifted peaks (higher wavelength), respectively. The nanoparticles with small hard anions redissolve in cell media likely due to sterics. […] This is achieved by cation-anion pairs of luminescent organic salts that can be modulated to be either non-toxic for enhanced imaging, or phototoxic for improved PDT. […] IR polymethine cyanine dyes, which have been used as effective theranostics are described. […] This is thought to occur through a mechanism mitigated by tumor vascularization, increased retention in cancer cells, and mitochondrial depolarization. Once in the cell, they accumulate in the mitochondria and lysosomes, where irradiation induces generation of cytotoxic oxygen species. A strategy is described for preventing or inhibiting salt dissociation in cells: aggregates are formed via introduction of the salt into an aqueous media by a solvent vehicle, forming particles with diameters of about 5 nm in size with no precipitation observed. […] This is confirmed by high resolution mass spectrometry, electron microscopy, and UV-Vis spectroscopy. […] Normalized absorption data are sown in FIGS. 7A, 7B, and 7C. This is likely due to steric effects, where if the counterion radius is too small it is not able to protect the nanoparticle stability. This can be characterized by the volume-averaged effective spherical radius of the counterions, where the cutoff is at about 0.275 nm.

mitochondrial superoxide = assay: MitoSOX measurement of mitochondrial superoxide; format: cell-based, human; details: A549 cells treated 4 days at phototoxic concentrations; with or without light
Source text: FIG. 22. Luminescent organic salts generate mitochondrial ROS. […] MitoSOX is used to measure mitochondrial superoxide, and H2DCFDA for general cytoplasmic ROS in A549 cell treated with organic salts at indicated phototoxic concentrations for 4 days.
Photoactive agents accumulate in the mitochondria of cancer cells and generate reactive oxygen species (ROS) with light exposure, depolarizing the mitochondrial membrane potential to cause cell death. Small molecule protective agents that quench ROS have been used to decrease their phototoxicity. However, the exact type of ROS generated by each luminescent agent remains unclear. Photo-induced ROS include singlet oxygen, superoxide radical anion, hydrogen peroxide, hydroxyl radical and others (see FIG. 21). Superoxide is a highly reactive and biologically toxic species deployed in nature to kill invading organisms. It is often formed as a byproduct of mitochondrial respiration but is typically quenched by the highly efficient superoxide dismutase. Hydroxyl radicals are also highly reactive, damaging nearly all forms of biological molecules. Unlike superoxide radical, the hydroxyl radical cannot be easily quenched naturally via enzymes, and endogenous antioxidants are typically required. Singlet oxygen is the excited state of the common triplet oxygen (O2 ground state) and is highly reactive towards organic compounds. Singlet oxygen can be eliminated in mammalian systems by antioxidants. A range of nitroxy radicals can subsequently stem from superoxide (peroxynitrite) or peroxide (nitrogen dioxide) species. […] Each luminescent cation-anion pair generates specific ROS resonant with its own energy level, and cell types can be targeted by generating the key sensitizing ROS. For example, it is expected that CyFPhB is phototoxic (see FIGS. 11A and 11B and 12A and 12B) by generating reactive oxygen species, which can be resonant with its molecular orbital energy levels (FIG. 21). […] No cytoplasmic ROS is detected using general cytoplasmic ROS probe H2DCFDA. […]

[3] = In vivo imaging, organ and tumor localization in orthotopic breast cancer mouse model; details: 1 mg/kg intraperitoneal, after 72 hours
Protocol: Mice are dosed with 1 mg/kg of organic salt in PBS (phosphate buffered saline) via intraperitoneal injection. Live imaging is performed by anesthetizing the mice with 3% isofluorane and using a Leica M165FC microscope with a PE4000 LED light source, DFC9000GT camera, and LAS X imaging software. For internal imaging, mice are sacrificed once tumors reach a size of 20 mm^3 and organs of interest are retrieved and imaged using the system described previously.

[4] = A549 cells, 850 nm irradiation, read-out: IC50 850 nm
[5] = A549 cells, dark, no irradiation, read-out: IC50 Dark

| Structure (SMILES) | Integrity of salt pairing in cellular environments [2] | IC50 (A549 cells; [4]) | IC50 (A549 cells; [5]) | Toxicity in words, dark and light (A549 cells; A549 cells) | Toxicity in the dark, in words (A549 cells; A549 cells) | also measured |
| --- | --- | --- | --- | --- | --- | --- |
| C[N+]1=C(C=CC2=CC(=CC=C3N(CCCCCC(=O)ON4C(=O)CCC4=O)c4ccccc4C3(C)C)CCC2)C(C)(C)c2ccccc21.[Cl-] [Cy7, Cyanine7 NHS ester, reference compound] | – | – | – | – | – | Toxicity of Cy7 salts, in words (A549 cells; A549 cells, with or without IR (740 nm) excitation): highly cytotoxic; Concentration at which cytotoxic (A549 cells): 1000 nM; Emission maximum [1]: 773 nm; Excitation maximum [1]: 750 nm |
| CCN1C(=CC=C2CCCC(C=CC3=[N+](CC)c4ccc5ccccc5c4C3(C)C)=C2Cl)C(C)(C)c2c1ccc1ccccc21.Fc1ccc([B-](c2ccc(F)cc2)(c2ccc(F)cc2)c2ccc(F)cc2)cc1 [CyFPhB] | maintained in cellular environments | 3.5 µM | 46 µM | phototoxic but not cytotoxic; also recorded: phototoxic (but not cytotoxic) | allow cell growth in the dark | Aggregation / nanoparticle behaviour in cell media, in words ([2]; cell media): forms small photoactive nanoparticles in cell media; Average nanoparticle size in cell media ([2]; cell media): < 10 nm; Phototoxicity with IR excitation, in words (A549 cells; A549 cells): most phototoxic; also recorded: cause significant cell death with IR excitation; also recorded: highly phototoxic; Phototoxicity with IR excitation, in words (A549 cells; A549 cells, listed as Cy^+ paired with FPhB): phototoxic; Toxicity in the dark, in words (A549 cells; A549 cells, listed as Cy^+ paired with FPhB^−): deactivates the dark cellular toxicity; Mitochondrial superoxide / ROS generation (MitoSOX), in words (mitochondrial superoxide): photo-generating ROS only with illumination; also recorded: photo-generating superoxide only with illumination |
| CCN1C(=CC=C2CCCC(C=CC3=[N+](CC)c4ccc5ccccc5c4C3(C)C)=C2Cl)C(C)(C)c2c1ccc1ccccc21.F[P-](F)(F)(F)(F)F [CyPF6] | – | 0.89 µM | 1.6 µM | toxic both in the dark and under IR (850 nm) illumination; also recorded: cytotoxic | cytotoxic | Aggregation / nanoparticle behaviour in cell media, in words ([2]; cell media): lack of aggregation observed in cell media; Concentration at which cytotoxic (A549 cells): < 2500 nM; Concentration at which cytotoxic (A549 cells; listed as Cy+ paired with PF6^−): 1600 nM; Mitochondrial superoxide / ROS generation (MitoSOX), in words (mitochondrial superoxide): catalyzing superoxide with or without light; Localization in tumor versus other organs [3]: concentration of the organic salt to the tumor |
| CCN1C(=CC=C2CCCC(C=CC3=[N+](CC)c4ccc5ccccc5c4C3(C)C)=C2Cl)C(C)(C)c2c1ccc1ccccc21.FC(F)(F)c1cc([B-](c2cc(C(F)(F)F)cc(C(F)(F)F)c2)(c2cc(C(F)(F)F)cc(C(F)(F)F)c2)c2cc(C(F)(F)F)cc(C(F)(F)F)c2)cc(C(F)(F)F)c1 [CyTFM] | maintained in cellular environments | 29 µM | 125 µM | not toxic to cells in the dark and in the light | deactivates the dark cellular toxicity | – |
| CCN1C(=CC=C2CCCC(C=CC3=[N+](CC)c4ccc5ccccc5c4C3(C)C)=C2Cl)C(C)(C)c2c1ccc1ccccc21.Clc1c(Cl)c(Cl)c2c(c1Cl)O[P-]13(O2)(Oc2c(Cl)c(Cl)c(Cl)c(Cl)c2O1)Oc1c(Cl)c(Cl)c(Cl)c(Cl)c1O3 [CyTRIS] | maintained in cellular environments | 1200 µM | 1220 µM | not toxic to cells in the dark and in the light | deactivates the dark cellular toxicity | – |
| CCN1C(=CC=C2CCCC(C=CC3=[N+](CC)c4ccc5ccccc5c4C3(C)C)=C2Cl)C(C)(C)c2c1ccc1ccccc21 [Cy^+, 2-[2-[2-chloro-3-[2-(1,3-dihydro-3,3-dimethyl-1-ethyl-2H-benz[e]indol-2-ylidene)ethylidene]-1-cylohexen-1-yl]-ethenyl]-3,3-dimethyl-1-ethyl-1H-benz[e]indolium] | – | – | – | – | – | Emission maximum [1]: 848 nm; Excitation maximum [1]: 830 nm |
| [I-].[K+] [KI, reference compound] | – | – | – | not toxic; also recorded: does not cause toxicity in the dark or with light | – | – |
